Results published in patent US20220081676A1, “MICROFLUIDIC DEVICES FOR TATTOO PIGMENT SAFETY” (priority 2019, published 2022).
Where two headings read alike, the source gives them in different places.

Key:
[1] = system: proximal tubular epithelium; assay: Gentamicin-induced toxicity on Renal-Kidney Proximal Tubule-Chip; type: cell-based, human; settings: 10 mM for 48 hours
Protocol: Gentamicin treatment is used for inducing damage as a positive control compared to controls without Gentamicin.
Readouts include but are not limited to: Gentamicin-induced toxicity after exposure to 10 mM of gentamicin for 48 hours.

[2] = system: Static Skin model (Hybrid Transwells); assay: Skin irritation: release of associated cytokines after topical Triton X-100, Hybrid Transwells; type: cell-based, human; settings: topical exposure
Protocol: D11 ALI. N=3 per condition Hybrid Transwells.
Method 1: ET50 values determined by MTT or Presto Blue assay will define the class of irritancy based on in vivo classification (see table below). Topical exposures will include 3 exposure times of 2 h, 5 h and 18 h to 100 ul or 100 mg of a test material. Positive control include 5% SDS and 1% Triton X-100. Method 2: a material is considered an irritant is viability is <50% after 1 h topical exposure to 30 ul or 25 mg/of test material (OECD TG 439) Method 3: a material is considered an irritant if there is an increase in the following cytokines compared to control by ELISA is indicative of skin irritant—IL-1alpha, IL-8, prostaglandin PGE2. MatTek Irritancy protocol

[3] = system: EpiDerm200 from MatTek; assay: ET50 following topical exposure to Triton X-100, EpiDerm200 from MatTek; type: cell-based; settings: skin equivalent model on the market
Protocol: (§1) In one embodiment, tissue robustness was evelauated determining the ET50 value following topical exposure to a test irritant, 1% TritonX-100. Irritation potential is calculated in terms of the “ET50” value: the time taken, in minutes, for a test compound to reduce the viability of the skin model to 50% compared with negative controls. […] Thus, at least one commercially obtained and tested skin equivalent model became permeable faster than one embodiment of a static skin model described herein.
(§2) Immunostaining (IF):Biomarkers characteristic of the stratified epidermal layers should include: • Basement membrane markers: collagen IV, Laminin 5 • Stratum basal: Keratin 14 • Stratum spinosum: Keratin 10 • Stratum granulosum: Filaggrin • Stratum corneum: Involucrin, Loricrin Quality control of tissue reproducibility from sample to sample and lot to lot can also be established by comparison of ET50 values to a baseline value. Example provided from MatTek for their baseline ET50 value on EpiDerm200—average 6.82 h. Exposure to 1.0% Triton X-100 topically over 12 h.

[4] = system: EpiDerm200 from MatTek; settings: cited from earlier work
[5] = system: Static Skin model; type: cell-based, human
Protocol: Tissue robustness evaluated by determining the ET50 value following topical exposure to 1% TritonX-100.
as §1, §2

[6] = system: Static Skin models (Hybrid Transwells); assay: Phototoxicity and photosensitization to Red122: cytokines release; type: cell-based, human; settings: tattooed with 35% w/v; for inflammatory and sensitization cytokines (IL-1Beta and IL-18) following UVA exposure: UVA on D11 ALI (D7 post-tattoo)
[7] = system: Static Skin models; type: cell-based, human
Source text: Red tattoo pigments known to cause some level of toxicity following sun exposure.
D12 ALI (D8 post-tattoo) N=4 per condition. Hybrid Transwells.
Red tattoo pigments known to cause some level of toxicity following sun exposure. […] D12 ALI (D8 post-tattoo) N=4 per condition. Hybrid Transwells.
Safety Assessment of Red122 Pigment—Phototoxicity Assay (Viability) Red tattoo pigments known to cause some level of toxicity following sun exposure. […] Chlorpromazine (CPZ), known to be induce phototoxicity and photosensitization, was used as a positive control.
Barrier Function: Permeability of Cascade Blue (3000 MW); Quantification of skin permeability to Cascade Blue by topical deposition of 50 μl of 10 μM Cascade Blue, followed by 1 hour static incubation. Bottom channel medium collected and Papp determined by quantification of Cascade Blue present in the sampled medium using a plate-reader. […] Permeability of Testosterone and Caffeine; Requires mass spectrometer for detection. These values can be correlated to in vivo skin. Topical Compound Test for Toxicity, Corrosivity, Irritancy, Phototoxicity viability assays performed are MTT or Presto Blue. Corrosivity: a material is considered corrosive if cell viability is <50% after 3 min exposure or <15% after 60 min exposure. […]

[8] = system: Kidney Proximal Tubule-Chip; assay: Assessment of tattoo pigment toxicity on the Kidney Proximal Tubule-Chip; type: cell-based, human
Protocol: Channel: Renal Proximal Tubule Epithelial Cells
Bottom Channel: Renal Microvascular Endothelial Cells
Morphology: BF Imaging From Effluent: LDH, ROS
Terminal Endpoints From Lysates: Caspase, ALP
ECM-coating. Sulfo-sanpah (Covachem, #13414), ER1 (0.5 mg/ml) in ER2 50 mM HEPES buffer; Collagen IV (BD Corning, 50 μg/mL in Dulbecco's phosphate-buffered saline (DPBS); and Matrigel (BD Corning, reduced growth factor, 100 ug/ml DPBS). Cells. Top channel. Human Proximal Tubular Epithelial Cells (Lonza, RPTEC #CC-2553); and Bottom channel. Primary Human Glomerular microvascular Endothelial cells (Cell Systems. ACBRI 128), expand to P7 (e.g. passage 7). Media. Renal Epithelial Growth Medium (REGM™ Lonza, CC-3190) for Proximal tubule cells or REGM2 (from PromoCell, Cat #C-26130); and Kidney endothelial cell medium (Cell Systems, 4ZO-500). Chip. High shear chip; under flow shear; and Tall channel closed top-chip. Experimental reagents. Collagen IV coated 6 well plate; and Corning BioCoat Collagen IV multiwall plates, Corning #354428.
One brief exemplary timeline is described as: Day −2: Chip coating; Day −1: Seeding endothelial cells; Day 0: Seeding proximal tubule epithelial cells; Day 0-7: Maintain chips; Day 7: Start Experiment (Study), e.g. 72 hours; and Day 10: End 72 hour Experiment (Study). Exemplary readouts include but are not limited to: Phase contrast microscopic images; immunofluorescent images; barrier function (in particular for kidney-chips, etc.); and Troponin I release (in particular for heart-chips, i.e. cardiac-chips).
Outflow from chips, (e.g. S1—closed top chip; and high shear (HS) chip) was collected for certain readouts. For reference, kidney endothelial media contains 5% FBS while the kidney epithelial media contains 0.5% FBS.

[9] = system: Static Skin-Chip Model; assay: Toxicity of pigments tattooed on Static Skin-Chip Model, metabolic activity (Presto Blue); type: cell-based, human
Source text: Tattooed on D4 at ALI, N=4 per condition Hybrid Transwells.
Metabolic Activity (Presto Blue) of Blue15 Pigment. Tattooed on D4 at ALI. N=4 per condition Hybrid Transwells.
Thus, readouts include assessing recovery after damage. Readouts include but are not limited to Invitrogen PrestoBlue™.

[10] = system: Dog Liver-Chip; assay: Effect of Bosentan on albumin secretion, Dog Liver-Chip; type: cell-based; settings: in vivo relevant doses
Source text: (§3) Readouts include but are not limited to: albumin secretion, Effect of Bosentan on Albumin Secretion; Inhibition of BSEP Transporter; Bile acid accumulation Cholyl-lysyl-fluorescein (CLF); BSEP substrate etc.

[11] = system: Human Liver-Chip; assay: Effect of Bosentan on albumin secretion, Human Liver-Chip; type: cell-based; settings: in vivo relevant doses
Source text: as §3

[12] = system: epidermal cells in a Skin-Chip (microfluidic OT-chip)
Source text: In some embodiments, a live-dead staining is used for determining cell viability.

[13] = system: Skin-Chip (microfluidic OT-chip); settings: human
Source text: Readouts include but are not limited to Invitrogen PrestoBlue™. Invitrogen PrestoBlue™ Cell Viability Reagent, e.g. Fisher Scientific, Catalog number: A1326, is an exemplary metabolic Assay Reagent. When added to cells, the PrestoBlue® reagent is modified by the reducing environment of a viable cell and turns red in color, becoming highly fluorescent. This color change can be detected using fluorescence or absorbance measurements.

[14] = system: Liver-Chip; assay: Assessment of tattoo pigment toxicity on the Liver-Chip; settings: 5 microM
Protocol: Injury to liver function is indicated by […] in albumin Secretion. […] Other functional changes or mechanistic routes may be detectable through additional assays
Pigment with a low concentration of 0.03% of pigment diluent is flowed through the chip (same concentrations both top and bottom channels simultaneously). […] In future applications, we also plan to explore potential toxicity of pigment diluent formulations (without pigments).
Both top and bottom channels were treated
Embodiments of Liver-Chips include: Co-culture (Hepatocytes+LSECs); Tri-culture (Hepatocytes+LSECs+Kupffer cells); Quad-culture (Hepatocytes+LSECs+Kupffer cells+Stellate cells); Human Liver-Chip; Rat Liver-Chip; Dog Liver-Chip; etc.

For gentamicin, the “LDH in medium effluent” value [1] was “significant increase”, the “NAG in medium effluent” value [1] was “significant increase” and the “ROS in medium effluent” value [1] was “significant increase”. The “active caspase-3 in cells lysates” value [1] was “increase” and the “microscopic analysis of the proximal tubular epithelium” value [1] was “structural damage”.

For Triton X-100, the “expression of inflammatory cytokine IL-1B” value [2] was “increase in expression”, the “IL-18 (expressed following skin sensitization)” value ([2]; D11 ALI) was “no significant increase” and the “expression of inflammatory cytokine IL-1alpha” value ([2]; D11 ALI) was “increase in expression”. For the same compound, the ET50 [3] was 7 h, the “baseline ET50 value, average” value ([4]; EpiDerm200, 1.0% Triton X-100 topically, provided from MatTek) was 6.82 h and the EPI-200 Triton ET-50 ([4]; Year 1995) was 6.65 h. The EPI-200 Triton ET-50 ([4]; Year 1996) was 6.74 h, the EPI-200 Triton ET-50 ([4]; Year 1997) was 6.78 h and the EPI-200 Triton ET-50 ([4]; Year 1998) was 7.24 h. For the same compound, the EPI-200 Triton ET-50 ([4]; Year 1999) was 6.75 h, the EPI-200 Triton ET-50 ([4]; Year 2000 (through September 2000)) was 6.76 h and the ET50 [5] was 11 h.

In the case of `Cc1ccc2[nH]c3cc4c(=O)c5cc(C)ccc5[nH]c4cc3c(=O)c2c1` [Red122], the “inflammatory and sensitization cytokines (IL-1Beta and IL-18) following UVA exposure” value [6] was “both cytotoxicity and sensitization following UVA exposure”, the “inflammatory and sensitization cytokines (IL-1Beta and IL-18) following UVA exposure” value ([6]; listed as Red) was “increase in both cytokines” and the “effect as a skin sensitizer (cytokine release)” value ([6]; no UVA) was “no effect as a skin sensitizer”. For the same compound, the “secretion of inflammatory cytokine” value ([6]; no UVA) was “increased secretion of inflammatory cytokine”, the “viability from healthy after UVA (phototoxicity)” value [7] was 85% and the caspase activity ([8]; between the different doses) was “No significant differences were noted in caspase activity”. The “kidney toxicity via LDH release” value ([8]; between the different doses) was “No significant changes in LDH”, the ROS activity ([8]; between the different groups) was “No significant differences were observed in the ROS activity” and the “ALP activity (kidney function)” value ([8]; different doses) was “No significant differences were observed in the ALP activity”. For the same compound, the “viability (metabolic activity, Presto Blue)” value ([9]; 24 h post-tattoo, tattooed on D4 at ALI, Hybrid Transwells) was “decrease in viability with increasing Red122 concentration” and the “skin recovery (viability)” value ([9]; over 8 days post-tattoo) was “Skin recovery observed”.

With `COc1ccccc1Oc1c(NS(=O)(=O)c2ccc(C(C)(C)C)cc2)nc(-c2ncccn2)nc1OCCO` [Bosentan] the “albumin secretion, dose response” value [10] was “dose response effects” and the “albumin secretion, dose response” value [11] was “dose response effects”.

In the case of `CC(O)C(=O)O` (centres unmarked) [lactic acid], the “cell death by DRAQ7 staining, dead cells/mm^2” value [12] was “statistically significant death of skin cells”.

With `O=C(O)CO` [glycolic acid] the “metabolic activity (PrestoBlue) as percentage of untreated control” value [13] was “statistically significant reduction in activity compared to the activity of citric acid (0.6M) and lactic acid”.

In the case of `CN[C@@H]1C[C@H]2O[C@@](C)([C@@H]1OC)n1c3ccccc3c3c4c(c5c6ccccc6n2c5c31)C(=O)NC4` [staurosporine], the “ATP synthesis, effluent from the bottom channels” value [14] was “loss of ATP synthesis”, the “albumin secreted over time, effluent from the top channel” value [14] was “loss of secreted albumin” and the hepatocyte cell morphology ([14]; after 4 days of treatment) was “hepatocyte damage”.
